Experimental data published in patent US10647690B2, “2,3-epoxy succinyl derivative, preparation method and use thereof” (Institute of Pharmacology and Toxicology Academy of …, priority 2016, dated 2020).
Like-named read-outs stand apart in the source and are kept apart here.

Target: T1, Cathepsin K (Homo sapiens, UniProt P43235)
T1 construct: purchased Biovision K150-100
T1 sequence (P43235 115-329): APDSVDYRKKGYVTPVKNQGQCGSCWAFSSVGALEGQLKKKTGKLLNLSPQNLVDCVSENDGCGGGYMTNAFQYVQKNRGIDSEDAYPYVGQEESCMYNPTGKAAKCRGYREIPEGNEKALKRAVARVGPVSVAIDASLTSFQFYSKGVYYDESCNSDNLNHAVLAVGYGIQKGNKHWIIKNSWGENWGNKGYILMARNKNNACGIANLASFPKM
Assay: Preliminary screening of Cathepsin K (Cathepsin K Inhibitor Screening Kit K150-100, Biovision)
Type: biochemical
Details: relative inhibition rate vs 10 μM FF-FMK control
Experimental: 1. Method for preliminary screening of Cathepsin K:
Preliminary screening of Cathepsin K was performed by using Cathepsin K Inhibitor Screening Kit (Product No. K150-100) from Biovision Company.
1.1.1 Preparation of Cathepsin K enzyme solution: Cathepsin K enzyme (40 μl) and Cathepsin K reagent (80 μl) were added to Cathepsin K buffer (3.88 ml), and were mixed well, to prepare Cathepsin K enzyme solution with a volume of 4 ml, which was placed on ice for further use.
1.1.2 Preparation of a compound solution: different compounds were separately weighed and dissolved in DMSO (methyl sulfoxide), to prepare solutions at a concentration of 30 mM as stock solutions, and for some insoluble compounds, they were prepared into solutions at a concentration of 10 mM as stock solutions; the 30 mM and 10 mM compound stock solutions were diluted to 1 mM and 100 μM DMSO solutions, respectively; 1 mM and 100 μM compound DMSO solutions (2 μl) were separately added to CTSK buffer (18 μl), to prepare compound solutions at a final concentration of 100 μM and 10 μM, respectively, wherein the concentration of DMSO was 10%.
1.1.3 Preparation of Cathepsin K substrate solution: Cathepsin K substrate (160 μl) was added to Cathepsin K buffer (3.44 ml), and mixed homogeneously, to prepare Cathepsin K substrate solution with a volume of 3.6 ml, which was placed on ice for further use.
1.2 Method for screening Cathepsin K inhibitor: Cathepsin K enzyme solution (prepared in Item 1.1.1) was added to a 384-well plate (ProxiPlate-384 Plus, Perkinelmer) at 10 μl/well, and centrifuged at 1000 rpm for 1 min; the compound solution (prepared in Item 1.1.2) was then added at 2 µl/well, and centrifuged at 1000 rpm for 1 min, and every concentration was repeated in two wells; the plate was placed in a 25° C. incubator for 15 min; Cathepsin K substrate solution was then added at 8 μl/well, and centrifuged at 1000 rpm for 1 min; and finally, the fluorescence signal was read in Enspire, wherein the exciting light was at a wavelength of 400 nm, the emitting light was at a wavelength of 505 nm, and continuous reading was performed at 37° C. for 120 min.
1.3 Data analysis: the slope (S) for all the samples was calculated by ΔRFU (RFU2−RFU1) and time ΔT (T2−T1), including negative control (Enzyme Control, EC) and positive control (Inhibitor Control, IC: 10 μM FF-FMK), and the calculation formula was as followed: Relative inhibition rate %=(SEC−SS)/(SEC−SIC)*100.

[1] = 1 μM compound, replicate 1, read-out: Inhibition % (1 μM) replicate 1
[2] = 1 μM compound, replicate 2, read-out: Inhibition % (1 μM) replicate 2
[3] = 10 μM compound, replicate 1, read-out: Inhibition % (10 μM) replicate 1
[4] = 10 μM compound, replicate 2, read-out: Inhibition % (10 μM) replicate 2

Row | SMILES | inhibition at 1 µM [1] | inhibition at 1 µM [2] | inhibition at 10 µM [3] | inhibition at 10 µM [4] | Inhibition % (1 μM) replicate 1 (1 μM compound, replicate 1) | Inhibition % (1 μM) replicate 2 (1 μM compound, replicate 2) | Inhibition % (10 μM) replicate 1 (10 μM compound, replicate 1) | Inhibition % (10 μM) replicate 2 (10 μM compound, replicate 2)
1 | CCOC(=O)[C@H]1O[C@@H]1C(=O)N[C@@H](CCSC)C(=O)N1CCSCC1 [Compound 36, (2s, 3s)-2-ethoxycarbonyl-3-[2-[(s)-4-methylthio-1-carbonyl-1-(thiomorpholinyl)butane]formylamino]epoxysuccinic acid] | 17.5% | 21.6% | 61.4% | 63.5% |  |  |  | 
2 | CCOC(=O)[C@H]1O[C@@H]1C(=O)N[C@H](CSCc1ccccc1)C(=O)NCC(C)CC (stereo partly drawn) [Compound 14, (2s, 3s)-2-ethoxycarbonyl-3-[2-[(s)-3-benzylthio-1-carbonyl-1-(2-methylbutylamino)propane]formylamino]epoxysuccinic acid] |  |  |  |  | 31.16% | −7.18% | 42.39% | 41.33%
3 | CCOC(=O)[C@H]1O[C@@H]1C(=O)N[C@@H](CCSC)C(=O)N1CC(C)CC(C)C1 (stereo partly drawn) [Compound 41, (2s, 3s)-2-ethoxycarbonyl-3-[2-[(s)-4-methylthio-1-carbonyl-1-(3,5-dimethylpiperidinyl)butane]formylamino]epoxysuccinic acid] | 32.1% | 30.8% | 64.2% | 61% |  |  |  | 
4 | CCOC(=O)[C@H]1O[C@@H]1C(=O)N[C@@H](CCSC)C(=O)NCCc1ccc(C)cc1 [Compound 33, (2s, 3s)-2-ethoxycarbonyl-3-[2-[(s)-4-methylthio-1-carbonyl-1-(p-methylphenylethylamino)butane]formylamino]epoxysuccinic acid] | 36.6% | 33.1% | 34.9% | 36% |  |  |  | 
5 | CCOC(=O)[C@H]1O[C@@H]1C(=O)N[C@@H](CCSC)C(=O)NC(C)CC (stereo partly drawn) [Compound 32] | 37.5% | 38.7% | 36.2% | 40.6% |  |  |  | 
6 | CCOC(=O)[C@H]1O[C@@H]1C(=O)N[C@@H](CCSC)C(=O)N1CCCC(C)C1 (stereo partly drawn) [Compound 7, (2s, 3s)-2-ethoxycarbonyl-3-[2-[(s)-4-methylthio-1-carbonyl-1-(3-methylpiperidinyl)butane]formylamino]epoxysuccinic acid] | 33% | -19.6% | 37.4% | 28.4% |  |  |  | 
7 | CCOC(=O)[C@H]1O[C@@H]1C(=O)N[C@@H](CCSC)C(=O)NCCc1ccc(OC)cc1 [Compound 10, (2s, 3s)-2-ethoxycarbonyl-3-[2-[(s)-4-methylthio-1-carbonyl-1-(4-methoxyphenylethylamino)butane]formylamino]epoxysuccinic acid] | 33.1% | 35.8% | 80.2% | 66.5% |  |  |  | 
8 | CCOC(=O)[C@H]1O[C@@H]1C(=O)N[C@@H](CCSC)C(=O)N1CCCCC1CC (stereo partly drawn) [Compound 35, (2s, 3s)-2-ethoxycarbonyl-3-[2-[(s)-4-methylthio-1-carbonyl-1-(2-ethylpiperidinyl)butane]formylamino]epoxysuccinic acid] | 37.8% | 22.8% | 72% | 61.1% |  |  |  | 
9 | CCCNC(=O)[C@H](CSCc1ccccc1)NC(=O)[C@H]1O[C@@H]1C(=O)OCC [Compound 17, (2s, 3s)-2-ethoxycarbonyl-3-[2-[(s)-3-benzylthio-1-carbonyl-1-(propylamino)propane]formylamino]epoxysuccinic acid] | 26.9% | 32.2% | 34.8% | 31.7% |  |  |  | 
10 | CCCCCNC(=O)[C@H](CCSC)NC(=O)[C@H]1O[C@@H]1C(=O)OCC [Compound 2, (2s, 3s)-2-ethoxycarbonyl-3-[2-[(s)-4-methylthio-1-carbonyl-1-(pentylamino)butane]formylamino]epoxysuccinic acid] | 28.6% | 33.2% | 59.5% | 60% |  |  |  | 
11 | CCOC(=O)[C@H]1O[C@@H]1C(=O)N[C@@H](CSCc1ccccc1)C(=O)N1CCCC1 [Compound 22, (2s, 3s)-2-ethoxycarbonyl-3-[2-[(s)-3-benzylthio-1-carbonyl-1-(tetrahydropyrrolyl)propane]formylamino]epoxysuccinic acid] | 16% | -4.45% | 29.7% | 19.5% |  |  |  | 
12 | CCCNC(=O)[C@H](CCSC)NC(=O)[C@H]1O[C@@H]1C(=O)OCC [Compound 4, (2s, 3s)-2-ethoxycarbonyl-3-[2-[(s)-4-methylthio-1-carbonyl-1-(propylamino)butane]formylamino]epoxysuccinic acid] | 15.6% | 23.6% | 31.6% | 34.9% |  |  |  | 
